Read-outs that look alike come from different tables or passages of the source.
How the values were obtained:
[1] = test system: larvae of the mustard beetle (Phaedon cochleariae); test: Phaedon larvae test (cabbage leaf dip); format: in vivo
Description: (§1) To produce a suitable preparation of active compound, 1 part by weight of an active compound or an active compound combination is mixed with the stated amounts of solvent and emulsifier, and the concentrate is diluted with water to the desired concentration.
Cabbage leaves (Brassica oleracea) are treated by being dipped into the preparation of active compound of the desired concentration and are populated with larvae of the mustard beetle (Phaedon cochleariae) while the leaves are still moist.
After the desired period of time, the kill in % is determined. 100% means that all beetle larvae have been killed; 0% means that none of the beetle larvae have been killed.

[2] = test system: caterpillars of the diamondback moth (Plutella xylostella); test: Plutella test (cabbage leaf dip); format: in vivo
Description: as §1
Cabbage leaves (Brassica oleracea) are treated by being dipped into the preparation of active compound of the desired concentration and are populated with caterpillars of the diamondback moth (Plutella xylostella) while the leaves are still moist.
After the desired period of time, the kill in % is determined 100% means that all caterpillars have been killed; 0% means that none of the caterpillars have been killed.

[3] = test system: green rice leaf hopper (Nephotettix cincticeps); test: Nephotettix test (rice seedling dip); format: in vivo
Description: as §1
Rice seedlings (Oryza sativa) are treated by being dipped into the active compound preparation of the desired concentration and are populated with the green rice leaf hopper (Nephotettix cincticeps) while the leaves are still moist.
After the desired period of time, the kill in % is determined. 100% means that all the leaf hoppers have been killed; 0% means that none of the leaf hoppers have been killed.

green peach aphid = test: Myzus test (cabbage leaf dip); format: in vivo, Myzus (green peach aphid); conditions: concentration 0.00016 %
Description: as §1
Cabbage leaves (Brassica oleracea) which are heavily infested by the green peach aphid are treated by being dipped into the active compound preparation of the desired concentration.
After the desired period of time, the kill in % is determined. 100% means that all aphids have been killed; 0% means that none of the aphids have been killed.

Spodoptera frugiperda = test: Critical concentration test/soil insects, Spodoptera frugiperda; format: in vivo; conditions: 120 h, 5 days after infestation, read-out: Kill in %
Description: (§2) To produce a suitable preparation of active compound, 1 part by weight of the active compound or the active compound mixture is mixed with the stated amounts of solvent and emulsifier, and the concentrate is diluted with water to the desired concentration.
(§3) The active compound preparation is mixed intimately with soil. Here, the concentration of the active compound in the preparation is almost irrelevant; only the amount by weight of active compound or active compound mixture per volume unit of soil, which is stated in ppm (mg/l), matters.
Soil is filled into 0.5 l pots and these are allowed to stand at 20° C. Immediately after preparation, 3 pre-germinated maize corns are placed into each pot. After the maize corns have emerged, boring sleeves are placed onto the pots. 9 days after preparation, the maize is populated with the test insects. After a further 5 days, the kill in % is determined. 100% means that all test insects have been killed; 0% means that the number of insects which are still alive is the same as for the untreated control.

[4] = test system: Phaedon cochleariae larvae; test: Critical concentration test/root-systemic action, Phaedon cochleariae; format: in vivo; conditions: 72 h, root-systemic, 3 days after infestation, read-out: Kill in %
Description: as §2, §3
Soil is filled into 250 ml pots and these are planted with cabbage (Brassica oleracea). The active compound or the active compound combination can thus be taken up by the plant roots from the soil and transported into the leaves.
After 7 days, the leaves are populated with the abovementioned test animals. After a further 3 days, the kill in % is determined. 100% means that all test insects have been killed; 0% means that the number of insects which are still alive is the same as in the untreated control.

Phytophthora infestans = format: in vivo; conditions: single active compound
Botrytis cinerea = test: Botrytis test (bean)/protective; format: in vivo; conditions: single active compound
Description: as §1, with “of” for “of an”, “or” for “or an”, “desired concentration, or a commercial formulation of active compound or active compound combination is diluted with water to the desired” for “desired”
To test for protective activity, young plants are sprayed with the active compound preparation at the stated application rate. After the spray coating has dried on, 2 small pieces of agar colonized by Botrytis cinerea are placed onto each leaf. The inoculated plants are placed in a dark chamber at approximately 20° C. and 100% relative atmospheric humidity.
2 days after the inoculation, the size of the disease spots on the leaves is evaluated. 0% means an efficacy which corresponds to that of the control, whereas an efficacy of 100% means that no infection is observed.

Fusarium culmorum = Fusarium culmorum test (wheat)/seed treatment; format: in vivo; conditions: 75 g/ha, dry seed dressing, approximately 3 weeks after sowing
Description: The active compounds are applied as a dry dressing. They are prepared by extending the active compound in question with ground minerals to give a finely pulverulent mixture which ensures even distribution on the surface of the seeds.
For the dressing, the infected seeds are shaken with the dressing in a closed glass bottle for 3 minutes.
2×100 seeds of the wheat are sown at a depth of 1 cm into standard soil, and the wheat is cultivated in a greenhouse at a temperature of approximately 18° C. and at a relative atmospheric humidity of approximately 95% in seed containers receiving 15 hours of light per day.
The evaluation of the plants for symptoms is carried out approximately 3 weeks after sowding. 0% means an efficacy which corresponds to that of the control, whereas an efficacy of 100% means that no infection is observed.

Puccinia recondita = test: Puccinia test (wheat)/protective; format: in vivo; conditions: 62.5 g/ha, 10 days after inoculation
Description: as §1, with “of” for “of an”, “or” for “or an”, “desired concentration, or a commercial formulation of active compound or active compound combination is diluted with water to the desired” for “desired”
To test for protective activity, young plants are sprayed with the active compound preparation at the stated application rate. After the spray coating has dried on, the plants are sprayed with a conidia suspension of Puccinia recondita. The plants remain in an incubation cabin at 20° C. and 100% relative atmospheric humidity for 48 hours.
The plants are then placed in a greenhouse at a temperature of approximately 20° C. and a relative atmospheric humidity of 80% to promote the development of rust pustules.
Evaluation is carried out 10 days after the inoculation. 0% means an efficacy which corresponds to that of the control, whereas an efficacy of 100% means that no infection is observed.

N#C/N=C1/SCCN1Cc1ccc(Cl)nc1 [formula (I)]
Kill in % ([1]; concentration 0.00016 %): 5%
Kill in % ([1]; concentration 0.0008 %): 40%
Kill in % ([2]; concentration 0.0008 %): 0%
Kill in % ([2]; concentration 0.004 %): 60%
Kill in % ([3]; concentration 0.000032 %): 0%
Kill in % ([3]; concentration 0.00016 %): 35%
Kill in % (green peach aphid): 25%
pest or weed control at 5 ppm (Spodoptera frugiperda; 5.00 ppm in soil): 0%
pest or weed control at 10 ppm (Spodoptera frugiperda; 10.00 ppm in soil): 50%
pest or weed control at 20 ppm (Spodoptera frugiperda; 20.00 ppm in soil): 100%
pest or weed control at 2.5 ppm ([4]; 2.50 ppm in soil): 0%
pest or weed control at 5 ppm ([4]; 5.00 ppm in soil): 80%
pest or weed control at 10 ppm ([4]; 10.00 ppm in soil): 95%
Efficacy in % (Phytophthora infestans; 10 g/ha): 0%
Efficacy in % (Phytophthora infestans; 50 g/ha): 11%
Efficacy in % (Phytophthora infestans; 500 g/ha, 3 days after inoculation): 46%
Efficacy in % (Botrytis cinerea; 10 g/ha, 2 days after inoculation): 0%
Efficacy in % (Botrytis cinerea; 40 g/ha): 0%
Efficacy in % (Botrytis cinerea; 500 g/ha): 0%
Efficacy in % (Fusarium culmorum): 0%
Efficacy in % (Puccinia recondita): 0%

— patent US7179814B2, “Agents for controlling plant pests” (priority 1998, dated 2007)
